For 49 compounds, IC50 and Activity results are on record in ChEMBL document CHEMBL1158451, “Generation of ligand-based pharmacophore model and virtual screening for identification of novel tubulin inhibitors with potent anticancer activity” (J Med Chem, 2009).

Test [1] relates to KB. The experiment in a line: Growth inhibition of human KB cells by methylene blue assay. Type of test: functional, cell-based.
Test [2] can be described thus: Inhibition of bovine cerebral cortex tubulin polymerization up to 30 mins. Set-up: species or system Bos taurus.
In test [3] the test system is KB. The experiment in a line: Cell cycle arrest in human KB cells assessed as accumulation at G2/M phase at 400 nM using propidium iodide staining by flow cytometry. Type of test: functional, cell-based. The settings on record: TDE = time-dependent effect.
Test [4] deals with HCT-116. The experiment in a line: Antiproliferative activity against human HCT116 xenografted tumor histoculture at 10uM after 48 hrs by hematoxylin staining. Type of test: functional, cell-based.
The subject of test [5] is HCT-116. The experiment in a line: Antiproliferative activity against human HCT116 xenografted tumor histoculture at 100 uM after 48 hrs by hematoxylin staining. Type of test: functional, cell-based. For orientation: In xenograft studies the graft and the host belong to different species.
For test [6], the system named is MCF7. The experiment in a line: Antiproliferative activity against human MCF7 cells after incubation for three generations by MTS assay. Type of test: functional, cell-based. On the technique in general: Tetrazolium assays rely on reduction of a dye to a coloured formazan, in cell work by metabolically active cells.
The subject of test [7] is KB. Put plainly: Cell cycle arrest in human KB cells assessed as loss of accumulation at G0/G1 phase after 24 hrs using propidium iodide staining by flow cytometry. Type of test: functional, cell-based. (In flow cytometry, cells or beads pass a laser one at a time.)
Test [8] deals with KB. The experiment in a line: Cell cycle arrest in human KB cells assessed as accumulation at G2/M phase after 24 hrs using propidium iodide staining by flow cytometry. Format: functional, cell-based.
Test [9] relates to KB. The experiment in a line: Cell cycle arrest in human KB cells assessed as accumulation at G2/M phase at 400 nM after 24 hrs using propidium iodide staining by flow cytometry. Type of test: functional.
Test [10] has as its system KB. Put plainly: Cell cycle arrest in human KB cells assessed as accumulation at G2/M phase at 800 nM after 24 hrs using propidium iodide staining by flow cytometry. Format: functional.
The test system of test [11] is HCT-116. Put plainly: Antiproliferative activity against human HCT116 xenografted tumor histoculture at 1 uM after 48 hrs by hematoxylin staining. Type of test: functional, cell-based.
For test [12], the system named is KB. Put plainly: Cell cycle arrest in human KB cells assessed as loss of accumulation at G0/G1 phase at 400 nM using propidium iodide staining by flow cytometry. Type of test: functional, cell-based. To be noted: TDE = time-dependent effect.
Test [13] relates to SF-268. Put plainly: Antiproliferative activity against human SF268 cells after three generation of incubation by MTS assay. Format: functional, cell-based.
The test system of test [14] is NCI-H460. The experiment in a line: Antiproliferative activity against human NCI-H460 cells after incubation for three generations by MTS assay. Format: functional, cell-based.
For test [15], the species on record is Bos taurus. Put plainly: (§1) Inhibition of bovine brain tubulin polymerization after 30 mins by […] assay.
Test [16] can be described thus: as §1. Set-up: species or system Bos taurus.
For test [17], the system named is KB. The experiment in a line: Cell cycle arrest in human KB cells assessed as accumulation at sub-G1 phase at 400 nM using propidium iodide staining by flow cytometry. Type of test: functional, cell-based. The settings on record: TDE = time-dependent effect.
For test [18], the system named is KB. Put plainly: Antiproliferative activity against human KB cells after incubation for three generations by MTS assay. Type of test: functional, cell-based.
Test [19] is described as follows: Inhibition of tubulin polymerization.

Active and inactive are the calls of the source. The calls are words filed in the database; no cut-off is given here.

Turning to `COc1ccc2c(C(=O)c3cc(OC)c(OC)c(OC)c3)cn(CCN3CCCCCC3)c2c1`, the IC50 (in general, the concentration needed to halve the response being measured) in test [1] was 280 nM.
For `C1=NNCO1` [OXADIAZOLINE], in [2], the IC50 came out at 4500 nM.
For `COc1ccc2c(C(=O)c3cc(OC)c(OC)c(OC)c3)c(CCCCCO)[nH]c2c1`, the IC50 in [1] worked out at 57.3 nM.
With `COc1ccc2c(C(=O)c3cc(OC)c(OC)c(OC)c3)cn(CCN3CCC[C@@H]3CO)c2c1`, in test [1], the IC50 was found to be 500 nM.
Consider `Cc1ccc(CCC(=O)Nc2ncc(Cc3cc(Cl)ccc3Cl)s2)o1`, for which the Activity entry was “tde” in test [3]; “Dose-dependent effect” in test [7]; “Dose-dependent effect” in test [8]; 55.6% in [9]; 70.3% in test [10]; “tde” in [12]. For the same compound, the Activity result in [15] is “Dose-dependent effect”; in [17] it was “tde”. The result in [4], in test [5] and in test [11] was Active. Further, the IC50 in test [6] came to 236 nM; in [13], 319 nM; in test [14], 285 nM; in [16], 4400 nM; in test [1], 187 nM; in [18], 187 nM.
On to `CCCCCc1[nH]c2cc(OC)ccc2c1C(=O)c1cc(OC)c(OC)c(OC)c1`, for which the IC50 in test [1] is 38 nM.
Regarding `CCCCc1[nH]c2cc(OC)ccc2c1C(=O)c1cc(OC)c(OC)c(OC)c1`, in [1], half-maximal inhibition (IC50) required 14.3 nM.
Still for that read-out and setting: to `COc1ccc2c(C(=O)c3cc(OC)c(OC)c(OC)c3)cn(CCN3CCN(c4ccccn4)CC3)c2c1` belongs 292 nM; to `CCCn1cc(C(=O)c2cc(OC)c(OC)c(OC)c2)c2ccc(OC)cc21`, 180 nM; to `COc1ccc2c(C(=O)c3cc(OC)c(OC)c(OC)c3)cn(CCCCCCO)c2c1`, 70 nM.
The same measure, in the same setting: to `COc1ccc2c(C(=O)c3cc(OC)c(OC)c(OC)c3)cn(CCN3CCN(C)CC3)c2c1` belongs 4100 nM.
The same measure, in the same setting: to `COC(=O)c1[nH]c2cc(OC)ccc2c1C(=O)c1cc(OC)c(OC)c(OC)c1` belongs 5.5 nM; to `COc1ccc2c(C(=O)c3cc(OC)c(OC)c(OC)c3)c(C)n(CCN(C)C)c2c1`, 332 nM; to `CCCCCn1cc(C(=O)c2cc(OC)c(OC)c(OC)c2)c2ccc(OC)cc21`, 350 nM.
Regarding `CCCCCCn1cc(C(=O)c2cc(OC)c(OC)c(OC)c2)c2ccc(OC)cc21`, the IC50 in test [1] came to 455 nM.
Still for that read-out and setting: to `COc1ccc2c(C(=O)c3cc(OC)c(OC)c(OC)c3)cn(CCN3CCCC3)c2c1` belongs 406 nM.
In turn, `COc1ccc2c(C(=O)c3cc(OC)c(OC)c(OC)c3)c(CO)[nH]c2c1` came in with an IC50 in test [1] of 1.2 nM.
Take `CCOC(=O)Cc1[nH]c2cc(OC)ccc2c1C(=O)c1cc(OC)c(OC)c(OC)c1`: 3.9 nM corresponded to half-maximal inhibition in [1] (IC50).
As to `COc1ccc2c(C(=O)c3cc(OC)c(OC)c(OC)c3)c(CN(C)C)[nH]c2c1`, the IC50 in test [1] is 49.8 nM.
The same measure, in the same setting: to `COc1ccc2c(C)cc(N/N=C/c3ccccc3O)nc2c1` belongs 2000 nM; to `CCN(CC)CCn1cc(C(=O)c2cc(OC)c(OC)c(OC)c2)c2ccc(OC)cc21`, 1800 nM.
Still for that read-out and setting: to `COc1ccc2c(C(=O)c3cc(OC)c(OC)c(OC)c3)cn(C(C)C)c2c1` belongs 287 nM; to `COc1ccc2c(C(=O)c3cc(OC)c(OC)c(OC)c3)cn(CCCCO)c2c1`, 75 nM; to `COc1ccc2c(C(=O)c3cc(OC)c(OC)c(OC)c3)cn(CCO)c2c1`, 55 nM.
With `COc1ccc(-n2cc(C(=O)c3cc(OC)c(OC)c(OC)c3)c3ccc(OC)cc32)cc1`, in test [1], the IC50 is 207 nM.
`COc1ccc2c(C(=O)c3cc(OC)c(OC)c(OC)c3)c(CCCCO)[nH]c2c1`: the IC50 in test [1] was determined as 6.6 nM.
For `COc1ccc2c(C(=O)c3cc(OC)c(OC)c(OC)c3)cn(CCCCCCN(C)C)c2c1`, 2100 nM corresponded to half-maximal inhibition in test [1] (IC50).
`O=C(/C=C/c1ccccc1)c1ccccc1` [CHALCONE]: the IC50 in test [19] worked out at 10000 nM.
Regarding `CCOC(=O)n1cc(C(=O)c2cc(OC)c(OC)c(OC)c2)c2ccc(OC)cc21`, the IC50 in test [1] was found to be 73 nM. That is a double-digit nanomolar value.
In turn, `COc1ccc2c(C(=O)c3cc(OC)c(OC)c(OC)c3)c(C)n(CCN3CCCCC3)c2c1` showed an IC50 in [1] of 222 nM.
On the same count and under the same terms, to `CCCCCCc1[nH]c2cc(OC)ccc2c1C(=O)c1cc(OC)c(OC)c(OC)c1` belongs 37.8 nM.
In the case of `COc1cc2c(c(N)c1OC)C(=O)/C(=C\c1cc(C)c(O)c(C)c1)C2` [INDANOCINE], the IC50 in test [19] came out at 1700 nM. This lies in the single-digit micromolar range.
`COc1ccc2c(C(=O)c3cc(OC)c(OC)c(OC)c3)cn(CCN3CCCCC3)c2c1` gave an IC50 in test [1] of 93 nM.
The compound `COc1ccc2c(C(=O)c3cc(OC)c(OC)c(OC)c3)cn(C)c2c1` registered an IC50 in [1] of 34 nM.
On the same count and under the same terms, to `COc1ccc2c(C(=O)c3cc(OC)c(OC)c(OC)c3)cn(CCCN(C)C)c2c1` belongs 1700 nM.
On the same count and under the same terms, to `COc1ccc2c(C(=O)c3cc(OC)c(OC)c(OC)c3)cn(CCCCCN(C)C)c2c1` belongs 1800 nM; to `COc1ccc2c(C(=O)c3cc(OC)c(OC)c(OC)c3)cn(C(=O)N3CCOCC3)c2c1`, 237 nM.
On the same count and under the same terms, to `COc1ccc2c(C(=O)c3cc(OC)c(OC)c(OC)c3)cn(CCN(C)C)c2c1` belongs 200 nM; to `CCN(CC)CCn1c(C)c(C(=O)c2cc(OC)c(OC)c(OC)c2)c2ccc(OC)cc21`, 288 nM; to `CCCCn1c(C)c(C(=O)c2cc(OC)c(OC)c(OC)c2)c2ccc(OC)cc21`, 346 nM.
In [1], `COc1ccc2c(C(=O)c3cc(OC)c(OC)c(OC)c3)cn(Cc3ccncc3)c2c1` displayed an IC50 of 210 nM.
Same read-out and setting: to `COc1ccc2c(C(=O)c3cc(OC)c(OC)c(OC)c3)cn(S(=O)(=O)c3ccccc3)c2c1` belongs 200 nM; to `COc1ccc2c(C(=O)c3cc(OC)c(OC)c(OC)c3)c(CCCO)[nH]c2c1`, 92 nM.
In test [1], `CCCc1[nH]c2cc(OC)ccc2c1C(=O)c1cc(OC)c(OC)c(OC)c1` showed an IC50 of 11 nM.
In the case of `Cc1ccc(C)c(Nc2cc(C)nc(-c3ccccc3O)n2)c1`, in test [1], the IC50 came to 3000 nM.
The compound `CCn1cc(C(=O)c2cc(OC)c(OC)c(OC)c2)c2ccc(OC)cc21` returned an IC50 in [1] of 64 nM. Against the preceding compound, the IC50 is about 47-fold lower.
The compound `COc1ccc2ccccc2c1-c1cc(C(=O)N/N=C/c2cccs2)[nH]n1` showed an IC50 in test [1] of 5700 nM.
In test [1], `COc1ccc2c(C(=O)c3cc(OC)c(OC)c(OC)c3)cn(CCCCN(C)C)c2c1` displayed an IC50 of 6000 nM.
For `COc1ccc2c(C(=O)c3cc(OC)c(OC)c(OC)c3)cn(-c3ccc([N+](=O)[O-])cc3)c2c1`, inhibition in test [1] was half-maximal at 290 nM (IC50).
